US9475843B2 (Zhejiang University, priority 2015, dated 2016)
≈ marks a conversion by molar mass, not a printed value. Like-named read-outs stand apart in the source and are kept apart here. No end group written: not given here.

Experiments:
[1] = system: S. choleraesuis CMCC50020
Description: The above results are average of 6 independent experimental repeats.

[2] = system: Porcine macrophage cells (3D4/2 cell line); assay: LPS-induced inflammation in porcine macrophages (cytokine mRNA); format: cell-based; conditions: FIG. 5
Description: Porcine macrophage cells (3D4/2 cell line) were cultured on RPMI-1640 medium with 10% fetal bovine serum, at 37° C. in a 5% CO2 cell incubator, until the cells formed a monolayer with about 80-90% confluency. The cells were counted and plated. The cells were seeded to a 6-well plate at 1×10^6/well, RPMI-1640 complete medium was added, and the cells were cultured to 80% confluency. Then the medium was replaced by fresh serum-free RPMI-1640 medium (2 mL). […] Each group of experiments was repeated for six replications. After incubation for 24 hrs, cells were collected and total RNA was extracted using Trizol. cDNA was obtained by reverse transcription. Relative mRNA expression of IL-6, IL-8 and IL-22 was detected. The relative mRNA expression of IL-22, IL-8 and IL-6 were measured by quantitative fluorescence method. GAPDH gene was used as a internal reference gene.

E. coli EPEC O44:K74 = system: E. coli EPEC O44:K74
Description: (§1) Bacteria was inoculated on Mueller-Hinton (MH) agar plate, the inoculated agar plate was inverted to grow single colonies. A single colony was inoculated in 3 mL MH broth, and the broth was cultured with constant shaking at constant temperature until turbid. 30 μL of bacterial suspension was then transferred to 3 mL of fresh MH broth, and the broth was cultured with shaking at constant temperature until OD600≈0.5. 10 μL bacterial suspension was transferred to 10 mL fresh MH broth and then vortexed to mix well. […] In addition, 100 μL of bacterial suspension was added to a well as positive control, and 100 μL of MH broth was added to a well as negative control. Each testing condition and controls was performed with 6 repeats.
(§2) The aforementioned antimicrobial peptides were used as controls in the same experiments described in the second, third, fourth and fifth embodiments.

E. coli K 88 = system: E. coli K 88
Description: as §1, §2

P. aeruginosa CMCC27853 = system: P. aeruginosa CMCC27853
Description: as §1, §2

S. aureus ATCC25923 = system: S. aureus ATCC25923
Description: as §1, §2

E. coli EPEC O78:K80 = system: E. coli EPEC O78:K80
Description: as §1, §2

S. epidermidis ATCC12228 = system: S. epidermidis ATCC12228
Description: as §1, §2

E. coli K 12 = system: E. coli K 12
Description: as §1, §2

E. coli EPEC O144:K26 = system: E. coli EPEC O144:K26
Description: as §1, §2

E. coli ATCC25922 = system: E. coli ATCC25922
Description: as §1, §2

S. typhimurium CMCC50013 = system: S. typhimurium CMCC50013
Description: as §1, §2

S. enteritidis CMCC50041 = system: S. enteritidis CMCC50041
Description: as §1, §2

porcine erythrocytes = system: porcine erythrocytes
Description: Blood was collected from porcine vena cava with heparin added, and mixed with RPMI1640 medium at a volume ratio of 1:1. After centrifuging with FICOLL-PAQUE™, circular and milky peripheral blood mononuclear cells (PMBCs) were drawn for later use, and erythrocytes at the bottom were collected. The erythrocytes were washed with 1×PBS until the supernatant was colorless. Then the washed erythrocytes were diluted 90-fold (1:89) with 1×PBS to determine hemolysis activity.
Triton X-100 (final concentration 1%) was used as positive control, and 10 uL 1×PBS was used as negative control. Each group was performed with 6 replications. Cells were cultured for 24 hrs at 37° C. in a cell culture incubator, and followed by centrifugation at 1500 rpm for 20 min. Then supernatant was transferred to a new 96-well plate to measure the values of OD at 414 nm and 546 nm using a microplate reader, and ΔOD was calculated. The formula for calculating hemolysis ratio is as follows: hemolysis ratio (%)=100%*(ΔOD treatment group−ΔOD negative control)/(ΔOD positive control−ΔOD negative control).
as §2

[3] = system: porcine peripheral mononuclear cells; conditions: porcine PBMCs, peptide ≦256 μg/mL, 24 hrs
Description: Purified PBMCs were diluted to 1×10^6 cells/mL, and cells were seeded with 90 uL per well in a 96-well plate. Further, background control well (100 μL RMPI1640 medium), low level control well (90 μL cell culture+10 μL PBS), and high level control well (90 μL cell culture+10 μL 20% Triton X-100) were also prepared. The 96-well plate was cultured at 37° C. for 2 hrs in a 5% CO2 incubator. […] Each group of experiment (each concentration) was repeated for six replications. After culturing for 24 hrs, 10 μL TritonX-100 (20%) was added to each positive control well, and mixed by pipetting. The plate was further incubated for 15 min. After culturing, the cells were centrifuged at 1500 rpm for 10 min. 60 μL of supernatant was drawn carefully from the center of each well and transferred to corresponding wells of a transparent new 96-well plate. 30 uL of LDH diluent was added to each well. The plate was cultured at room temperature for 30 min with vibration in a dark environment. OD values were recorded at 492 nm and 900 nm using a microplate reader for calculating ΔOD value. […]

Compound | MIC ([1]; CMCC50020, 24 h) [µg/mL] | MIC (E. coli EPEC O44:K74; EPEC O44:K74, 24 h) [µg/mL] | MIC (E. coli K 88; K 88, 24 h) [µg/mL] | MIC (P. aeruginosa CMCC27853; CMCC27853, 24 h) [µg/mL] | MIC (S. aureus ATCC25923; ATCC25923, 24 h) [µg/mL] | MIC (E. coli EPEC O78:K80; EPEC O78:K80, 24 h) [µg/mL] | MIC (S. epidermidis ATCC12228; ATCC12228, 24 h) [µg/mL] | MIC (E. coli K 12; K 12, 24 h) [µg/mL] | MIC (E. coli EPEC O144:K26; EPEC O144:K26, 24 h) [µg/mL] | MIC (E. coli ATCC25922; ATCC25922, 24 h) [µg/mL] | MIC (S. typhimurium CMCC50013; CMCC50013, 24 h) [µg/mL] | MIC (S. enteritidis CMCC50041; CMCC50041, 24 h) [µg/mL] | other results
SWLSKTAKKLENSAKKRIAIAIQGGPR [CP-1] | 8 | 32 | 4 | 16 | 128 | 16 | 128 | 8 | 128 | 4 | 8 | 16 | effect on LPS-induced inflammation [2]: no effects
CC(C)C[C@H](NC(=O)[C@H](CCCNC(=N)N)NC(=O)CNC(=O)CNC(=O)[C@@H](N)CCCNC(=N)N)C(=O)N[C@H]1CSSC[C@@H](C(=O)N[C@H](C(=O)NCC(=O)N[C@@H](CCCNC(=N)N)C(N)=O)C(C)C)NC(=O)[C@H](C(C)C)NC(=O)[C@@H]2CSSC[C@H](NC(=O)[C@H](Cc3ccc(O)cc3)NC1=O)C(=O)N[C@@H](CCCNC(=N)N)C(=O)N[C@@H](CCCNC(=N)N)C(=O)N[C@@H](CCCNC(=N)N)C(=O)N[C@@H](Cc1ccccc1)C(=O)N2 [PG-1] | 4 (≈ 1.86 µM) | 32 (≈ 14.8 µM) | 8 (≈ 3.71 µM) | 8 (≈ 3.71 µM) | 2 (≈ 0.928 µM) | 16 (≈ 7.42 µM) | 4 (≈ 1.86 µM) | 8 (≈ 3.71 µM) | 64 (≈ 29.7 µM) | 4 (≈ 1.86 µM) | 4 (≈ 1.86 µM) | 16 (≈ 7.42 µM) | hemolysis activity (compared with WY-21) (porcine erythrocytes; FIG. 4): higher than WY-21
VKFFRKLKKSVKEKIGKEFKR [WY-21] | – | – | – | – | – | – | – | – | – | – | – | – | hemolysis ratio (porcine erythrocytes; peptide 512 μg/mL, 24 hrs at 37° C.): less than 5%; MIC ([1]; S. choleraesuis CMCC50020, 24 hrs at 37° C., MH broth): 16 µg/mL; MIC (E. coli EPEC O44:K74; E. coli EPEC O44:K74, 24 hrs at 37° C., MH broth): 8 µg/mL; MIC (E. coli K 88; E. coli K 88, 24 hrs at 37° C., MH broth): 8 µg/mL; MIC (P. aeruginosa CMCC27853; P. aeruginosa CMCC27853, 24 hrs at 37° C., MH broth): 8 µg/mL; MIC (S. aureus ATCC25923; S. aureus ATCC25923, 24 hrs at 37° C., MH broth): 8 µg/mL; MIC (E. coli EPEC O78:K80; E. coli EPEC O78:K80, 24 hrs at 37° C., MH broth): 16 µg/mL; MIC (S. epidermidis ATCC12228; S. epidermidis ATCC12228, 24 hrs at 37° C., MH broth): 32 µg/mL; MIC (E. coli K 12; E. coli K 12, 24 hrs at 37° C., MH broth): 4 µg/mL; MIC (E. coli EPEC O144:K26; E. coli EPEC O144:K26, 24 hrs at 37° C., MH broth): 16 µg/mL; MIC (E. coli ATCC25922; E. coli ATCC25922, 24 hrs at 37° C., MH broth): 8 µg/mL; MIC (S. typhimurium CMCC50013; S. typhimurium CMCC50013, 24 hrs at 37° C., MH broth): 16 µg/mL; MIC (S. enteritidis CMCC50041; S. enteritidis CMCC50041, 24 hrs at 37° C., MH broth): 64 µg/mL; LDH releasing rate [3]: less than 10%
